Data from EP0830136B1, “NEW CRY[…] […]” (priority 1995, dated 1996).
“Also recorded” adds a separate entry of the source. Where two headings read alike, the source gives them in different places.

How the values were obtained:
[1] = Methanolysis (solvolysis) of the C-D ester bond; type: physicochemical; conditions: methanol used in the isolation scheme
tumors implanted in mice = conditions: for in vivo antitumor activity: statement in words; for T/C values / gross log kill values: summary over trials, partly worded 'mostly'
physchem = conditions: aqueous base, pH 11
KB = assay: In vitro cytotoxicity, KB cell line; type: cell-based, human; conditions: read-out: RB IC50
LoVo = assay: In vitro cytotoxicity, LoVo cell line; type: cell-based, human
Colon 51 = conditions: SC Tumor Colon 51
Mam 16/C = conditions: SC Tumor Mam 16/C
Mam 16/Taxol = conditions: Exp # 1733; SC Tumor Mam 16/Taxol; 5 Inj. IV; 16.5 mg/kg Total Dose
Protocol: (§1) Gross log kill is defined as T-C/3.2 Td where T is the median time in days for the tumors of the treated group to reach 750mg, C is the median time in days for the tumors of the control group to reach 750mg, and Td is the tumor volume doubling time (T.H. Corbett et al., Cytotoxic Anticancer Drugs: Models and Concepts for Drug Discovery and Development, pp 35-87; Kluwer: Norwell, 1992).

M17/0 (Adr. Sens.) = conditions: Exp # 1833; SC Tumor M17/0 (Adr. Sens.); 5 Inj. IV; 5.4 mg/kg Total Dose
Protocol: as §1

[2] = test system: Human Sm Cell L. DMS273 SCID; conditions: Exp # 1596; SC Tumor Human Sm Cell L. DMS273 SCID; 6 Inj. IV; 7.3 mg/kg Total Dose
Protocol: as §1

MX-1 Human Breast = conditions: Exp # 1806; SC Tumor MX-1 Human Breast; 8 Inj. IV; 12 mg/kg Total Dose
Protocol: as §1

H125 Human Adenosq-lung = conditions: Exp # 1823; SC Tumor H125 Human Adenosq-lung; 8 Inj. IV; 14.4 mg/kg Total Dose
Protocol: as §1

LNCaP Human Prostate = conditions: Exp # 1841; SC Tumor LNCaP Human Prostate; 6 Inj. IV; 6.5 mg/kg Total Dose
Protocol: as §1

[3] = test system: human tumor cell lines KB and LoVo; assay: In vitro cytotoxicity, KB and LoVo; conditions: read-out: cytotoxicities IC50's
Colon 26 = assay: In vivo activity, Colon 26 experiment; parameters: species or system mice
Protocol: as §1

[4] = test system: A-10 rat aortic smooth muscle cells; assay: Immunofluorescence of cytoskeleton in A-10 cells; type: cell-based; conditions: A-10 cells
Protocol: A-10 cells were grown to near-confluency on glass coverslips in BME/10% FBS. Compounds in PBS were added to the indicated final concentrations and cells were incubated for an additional 24 hours. For the staining of microtubules and intermediate filaments, the cells were fixed with cold methanol and incubated with PBS containing 10% calf serum to block nonspecific binding sites. Cells were then incubated at 37°C for 60 min with either monoclonal anti-β-tubulin or with monoclonal anti-vimentin at dilutions recommended by the manufacturer. Bound primary antibodies were subsequently visualized by a 45-minute incubation with fluorescein-conjugated rabbit antimouse IgG. The coverslips were mounted on microscope slides and the fluorescence patterns were examined and photographed using a Zeiss Photomicroscope ill equipped with epifluorescence optics for fluorescein. […] PBS containing 100nM TRITC-phalloidin was then added and the mixture was allowed to incubate for 45 min at 37° C. The cells were washed rapidly three times with PBS before the coverslips were mounted and immediately photographed as described above.

SKOV3 cells = assay: Cell proliferation assay (SRB staining), SKOV3; type: cell-based, Human; conditions: 24 hours with IC50 doses
SKVLB1 cells = assay: cells; type: cell-based; conditions: Homo sapiens, SKVLB1, 48 h, read-out: SKVLB1 IC50 (nM)
Protocol: The Jurkat T cell leukemia line and A-10 rat aortic smooth muscle cells were obtained from the American Type Culture Collection and were cultured in BME containing 10% FBS and 50µg/mL gentamycin sulfate. […] Both cell lines were maintained in BME containing 10% FBS and 50µg/mL gentamycin sulfate.
Cell proliferation assays were performed as described by Skehan et al.^11 For Jurkat cells, cultures were treated with the indicated drugs as described in Skehan^11 and total cell numbers were determined by counting the cells in a hemacytometer. The percentage of cells in mitosis was determined by staining with 0.4% Giemsa in PBS followed by three rapid washes with PBS. At least 1000 cells per treatment were scored for the presence of mitotic figures and the mitotic index was calculated as the ratio of cells with mitotic figures to the total number of cells counted.

[5] = Exp # 1813, SC Tumor P03, 9 Inj. IV, 27 mg/kg TD
[6] = Exp # 1843, SC Tumor P03, 7 Inj. IV, 23 mg/kg TD
[7] = Exp # 1560, SC Tumor Colon 38, 8 Inj. IV, 10.3 mg/kg Total Dose
[8] = Exp # 1636, 7 Inj. IV, 28.1 mg/kg Total Dose
[9] = Exp # 1720, 5 Inj. IV, 13.2 mg/kg Total Dose
[10] = Exp # 1878, SC Tumor P03, 9 Inj. IV, 82 mg/kg TD
[11] = Exp # 1887 B, SC Tumor C38, 6 Inj. IV, 30 mg/kg TD
[12] = Exp # 1825, SC Tumor P03, 11 Inj. IV, 106 mg/kg TD
[13] = Exp # 1900, 9 Inj. IV, 67.5 mg/kg TD
[14] = Exp # 1885, 7 Inj. IV, 21.3 mg/kg TD
[15] = Exp # 1843, SC Tumor P03, 4 Inj. IV, 28/5 mg/kg TD
[16] = 24 hours, 2µM cytochalasin B, 100nM vinblastine or 10nM cryptophycin compounds

COc1ccc(C[C@H]2NC(=O)/C=C/C[C@@H]([C@H](C)[C@H]3O[C@@H]3c3ccccc3)OC(=O)[C@H](CC(C)C)OC(=O)CCNC2=O)cc1Cl [Cryptophycin 21]
methanolysis of the C-D ester bond [1]: considerable methanolysis; also recorded: much more susceptible to methanolysis than Cryptophycin 1 | % Body Wt. Loss at Nadir (Panc 03; [5]): -11% | Cures (Panc 03; [5]): 0/5 | Log Kill (Panc 03; [5]): None | T/C (Panc 03; [5]): 61% | dead (Panc 03; [5]): 1/5 | in vivo antitumor activity (tumors implanted in mice): inactive | half-life (physchem): 15 min

COc1ccc(C[C@H]2NC(=O)/C=C/C[C@@H]([C@H](C)[C@@H](O)[C@@H](O)c3ccccc3)OC(=O)[C@H](CC(C)C)OC(=O)[C@H](C)CNC2=O)cc1Cl [Cryptophycin 15]
in vivo antitumor activity (tumors implanted in mice): antitumor activity is greatly diminished

COc1ccc(CC2NC(=O)CCCC(C(C)C3OC3c3ccccc3)OC(=O)C(CC(C)C)OC(=O)C(C)CNC2=O)cc1Cl (stereo not shown) [Cryptophycin 35]
% Body Wt. Loss at Nadir (Panc 03; [6]): -2% | Cures (Panc 03; [6]): 0/5 | Log Kill (Panc 03; [6]): 1.3 | T/C (Panc 03; [6]): 11%

COc1ccc(C[C@H]2NC(=O)/C=C/C[C@@H]([C@H](C)[C@@H](O)[C@@H](Br)c3ccccc3)OC(=O)[C@H](CC(C)C)OC(=O)[C@H](C)CNC2=O)cc1Cl [Cryptophycin 25]
T/C and gross log kill values, comparison in words (tumors implanted in mice; mouse, in vivo): comparable with those for Cryptophycin 1

COc1ccc(C[C@H]2NC(=O)/C=C/C[C@@H]([C@H](C)[C@H]3O[C@@H]3c3ccccc3)OC(=O)[C@H](CC(C)C)OC(=O)[C@H](C)CNC2=O)cc1Cl [Cryptophycin 1]
IC50 (KB): 0.0092 nM | IC50 (LoVo): 0.0104 nM | methanolysis of the C-D ester bond [1]: considerable methanolysis | % Body Wt. Loss at Nadir (Colon 38; [7]): Gain | Cures (Colon 38; [7]): 0/5 | Log Kill (Colon 38; [7]): 1.5 | T/C (Colon 38; [7]): 6% | % Body Wt. Loss at Nadir (Colon 51; [8]): -11% | Cures (Colon 51; [8]): 0/5 | Log Kill (Colon 51; [8]): 1.3 | T/C (Colon 51; [8]): 7% | % Body Wt. Loss at Nadir (Mam 16/C; [9]): -1% | Cures (Mam 16/C; [9]): 0/5 | Log Kill (Mam 16/C; [9]): 1.4 | T/C (Mam 16/C; [9]): 5% | % Body Wt. Loss at Nadir (Mam 16/Taxol): 0% | Cures (Mam 16/Taxol): 0/5 | Log Kill (Mam 16/Taxol): 1.8 | T/C (Mam 16/Taxol): 2% | % Body Wt. Loss at Nadir (M17/0 (Adr. Sens.)): -10% | Cures (M17/0 (Adr. Sens.)): 0/5 | Log Kill (M17/0 (Adr. Sens.)): <1 | T/C (M17/0 (Adr. Sens.)): 23% | % Body Wt. Loss at Nadir [2]: 0% | Cures [2]: 0/5 | Log Kill [2]: <1 | T/C [2]: 27% | % Body Wt. Loss at Nadir (MX-1 Human Breast): -3% | Cures (MX-1 Human Breast): 0/5 | Log Kill (MX-1 Human Breast): 2.0 | T/C (MX-1 Human Breast): 3% | % Body Wt. Loss at Nadir (H125 Human Adenosq-lung): -15% | Cures (H125 Human Adenosq-lung): 0/5 | Log Kill (H125 Human Adenosq-lung): 1.1 | T/C (H125 Human Adenosq-lung): 9% | dead (H125 Human Adenosq-lung): 1/5 | % Body Wt. Loss at Nadir (LNCaP Human Prostate): -6% | Cures (LNCaP Human Prostate): 0/5 | Log Kill (LNCaP Human Prostate): <1 | T/C (LNCaP Human Prostate): 26% | toxicity in animals (tumors implanted in mice; compared with Cryptophycin 8): appreciable toxicity | T/C values (tumors implanted in mice): > 0% | gross log kill values (tumors implanted in mice): < 2.0 | half-life (physchem): 49.8 min | IC50 [3]: 0.009 to 0.029 nM

CC(C)C[C@@H]1OC(=O)[C@H](C)CNC(=O)[C@@H](Cc2ccc(O)c(Cl)c2)NC(=O)/C=C/C[C@@H]([C@H](C)[C@H]2O[C@@H]2c2ccccc2)OC1=O [Cryptophycin 16]
% Body Wt. Loss at Nadir (Panc 03; [10]): -1% | Cures (Panc 03; [10]): 0/5 | Log Kill (Panc 03; [10]): None | T/C (Panc 03; [10]): 89%

COc1ccc(C[C@H]2NC(=O)/C=C/C[C@@H]([C@H](C)[C@@H](O)[C@@H](Cl)c3ccccc3)OC(=O)[C@H](CC(C)C)OC(=O)[C@H](C)CNC2=O)cc1Cl [Cryptophycin 8]
IC50 (KB): 0.019 nM | IC50 (LoVo): 0.0091 nM | % Body Wt. Loss at Nadir (Colon 38; [11]): -2% | Cures (Colon 38; [11]): 1/5 | Log Kill (Colon 38; [11]): 2.8 | T/C (Colon 38; [11]): 0% | % Body Wt. Loss at Nadir (Panc 03; [12]): -6% | Cures (Panc 03; [12]): 0/5 | T/C (Panc 03; [12]): 4% | Log Kill (Panc 03; mouse, in vivo, 106 mg/kg): 4.6 | % Body Wt. Loss at Nadir (Colon 51; [13]): -1% | Cures (Colon 51; [13]): 0/5 | Log Kill (Colon 51; [13]): 1.8 | T/C (Colon 51; [13]): 7% | % Body Wt. Loss at Nadir (Mam 16/C; [14]): -4.5% | Cures (Mam 16/C; [14]): 0/5 | Log Kill (Mam 16/C; [14]): 2.5 | T/C (Mam 16/C; [14]): 6% | T/C values (tumors implanted in mice): 0% | gross log kill values (tumors implanted in mice): > 2.8 | IC50 [3]: 0.009 to 0.019 nM

COc1ccc(C[C@H]2NC(=O)/C=C/C[C@@H]([C@H](C)[C@@H](O)[C@@H](Cl)c3ccccc3)OC(=O)[C@H](CC(C)C)OC(=O)C(C)(C)CNC2=O)cc1Cl [Cryptophycin 55]
gross log kill value (Colon 26): 1.2 | total dosage required in vivo relative to comparator (tumors implanted in mice; mouse, in vivo): three times the total dosage compared with Cryptophycin 8 | in vivo antitumor activity (tumors implanted in mice): active in vivo | IC50 [3]: 0.033 to 0.047 nM

COc1ccc(C[C@H]2NC(=O)/C=C/C[C@@H]([C@H](C)/C=C/c3ccccc3)OC(=O)[C@H](CC(C)C)OC(=O)[C@H](C)CNC2=O)cc1Cl [Cryptophycin 3]
IC50 (KB): 3.1 to 4.6 nM | IC50 (LoVo): 1.9 to 5.8 nM | % Body Wt. Loss at Nadir (Panc 03; [15]): -9% | Cures (Panc 03; [15]): 0/5 | Log Kill (Panc 03; [15]): <1 | T/C (Panc 03; [15]): 54% | in vivo antitumor activity (tumors implanted in mice): antitumor activity is greatly diminished | IC50 [3]: 3.5 to 5.8 nM

COc1ccc(C[C@H]2NC(=O)/C=C/C[C@@H]([C@H](C)/C=C/c3ccccc3)OC(=O)[C@H](CC(C)C)OC(=O)C(C)(C)CNC2=O)cc1Cl [Cryptophycin 51]
IC50 [3]: 3.5 to 5.8 nM

C=C1[C@@H](C)[C@H]2[C@H](Cc3ccccc3)NC(=O)[C@]23OC(=O)/C=C/[C@H](O)CCC[C@@H](C)C/C=C/[C@H]3[C@@H]1O [Cytochalasin B, cytochalasin B]
effect on microfilaments [4, 16]: complete depolymerization of microfilaments | effect on microtubules [4, 16]: did not affect the distribution of either mierotubules or intermediate filaments | effect on vimentin intermediate filaments [4, 16]: did not affect the distribution of either mierotubules or intermediate filaments

CC(=O)O[C@H]1C(=O)[C@@]2(C)[C@H]([C@H](OC(=O)c3ccccc3)[C@]3(O)C[C@H](OC(=O)[C@H](O)[C@@H](NC(=O)c4ccccc4)c4ccccc4)C(C)=C1C3(C)C)[C@]1(OC(C)=O)CO[C@@H]1C[C@@H]2O [taxol]
increase in cell number during treatment (SKOV3 cells): 25% | IC50 (SKVLB1 cells): 8000 nM | microtubule organization in taxol-treated cells ([4]; 10µM taxol): extensively bundled
